Assay results reported in the supplement of paper PMC8024199.
± gives the standard deviation of the averaged measurements.

Experiments:
Assay in all cases: drug sensitivity score (DSS) (DSS score); higher = more sensitive (stronger growth inhibition); extreme values may be limits of the assay
[1] = tested on: Ba/F3 P210-BCR-ABL1 RUNX1-/- (mouse)
Summary of the method: (§1)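 Mouse Ba/F3 cells, either CRISPR/Cas9-edited at a target exon or edited-control clones, were screened against a 528-compound library on pre-printed 384-well plates. Each compound was tested at five concentrations across a 10,000-fold range, with 10,000 cells per well in RPMI with 10% FBS for 72 h at 37 °C and 5% CO2. CellTiter-Glo luminescence was scaled between vehicle and positive-control wells, and each dose-response was summarised as a drug sensitivity score. Scores were averaged over two replicates.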

[2] = tested on: Ba/F3 P210-BCR-ABL1 RUNX1-/mut (mouse)
Summary of the method: as §1

[3] = tested on: Ba/F3 P210-BCR-ABL1 RUNX1wt/wt control (mouse)
Summary of the method: as §1

Question: What does the source list for `Cc1ccc(F)c(NC(=O)Nc2ccc(-c3cccc4[nH]nc(N)c34)cc2)c1` [Linifanib]?
Answer: drug sensitivity score [1]: 1.1 ± 1.6; drug sensitivity score [2]: 0.1 ± 0.14; drug sensitivity score [3]: 0.1 ± 0.14

Question: `FC(F)c1nc2ccccc2n1-c1nc(N2CCOCC2)nc(N2CCOCC2)n1` [ZSTK474] was tested. Which drug sensitivity score [1] did it give?
Answer: 9.85 ± 2.6

Question: What about the drug sensitivity score [2] of the same molecule?
Answer: 9.75 ± 5.9

Question: And the drug sensitivity score [3]?
Answer: 5.3 ± 0.85

Question: For `O=C(Nc1cccnc1)N1CCC(Cc2cccc(Oc3ccc(C(F)(F)F)cn3)c2)CC1` [PF-3845], which drug sensitivity score [1] is on record?
Answer: 2.15 ± 0.64

Question: What about the drug sensitivity score [2] of the same molecule?
Answer: 1.9 ± 2.7

Question: What about the drug sensitivity score [3] of the same molecule?
Answer: 2.1 ± 0.14

Question: Which results are given for `O=C(O)c1ccc(CN2CCC(CN[C@@H]3C[C@H]3c3ccccc3)CC2)cc1`?
Answer: drug sensitivity score [1]: 1.1 ± 1.1; drug sensitivity score [2]: 0; drug sensitivity score [3]: 0

Question: With `CCCCCCCCCCCCCCCCCCOP(=O)([O-])OC1CC[N+](C)(C)CC1` [Perifosine] as the molecule, how does the drug sensitivity score [1] read?
Answer: 0

Question: And the drug sensitivity score [2]?
Answer: 0

Question: And the drug sensitivity score [3]?
Answer: 0

Question: What does the source list for `C[C@H]1CNCCCN1S(=O)(=O)c1cccc2cncc(F)c12` [Ripasudil]?
Answer: drug sensitivity score [1]: 0; drug sensitivity score [2]: 0; drug sensitivity score [3]: 0

Question: For `CN1CCc2c(c3ccccc3n2Cc2ccc(C(=O)NO)cc2)C1` [Tubastatin A], which drug sensitivity score [1] is on record?
Answer: 4.05 ± 0.64

Question: What about the drug sensitivity score [2] of the same molecule?
Answer: 3.6

Question: What about the drug sensitivity score [3] of the same molecule?
Answer: 0

Question: For `COc1cc(Nc2ncc(F)c(Nc3ccc4c(n3)N(COP(=O)(O)O)C(=O)C(C)(C)O4)n2)cc(OC)c1OC` [Fostamatinib], which drug sensitivity score [1] is on record?
Answer: 1.4 ± 0.14

Question: And the drug sensitivity score [2]?
Answer: 0.45 ± 0.64

Question: What about the drug sensitivity score [3] of the same molecule?
Answer: 0.45 ± 0.49

Question: With `Nc1cc(C(F)(F)F)c(-c2cc(N3CCOCC3)nc(N3CCOCC3)n2)cn1` [Buparlisib] as the molecule, how does the drug sensitivity score [1] read?
Answer: 8.6 ± 0.42

Question: And the drug sensitivity score [2]?
Answer: 8.7 ± 2.3

Question: What about the drug sensitivity score [3] of the same molecule?
Answer: 4.5 ± 0.57

Question: Which drug sensitivity score [1] does the source give for `COc1cc2c(cc1OCCCN1CCCC1)N=C(N)C21CCC1` [A-366] here?
Answer: 6.1 ± 0.57

Question: And the drug sensitivity score [2]?
Answer: 6.5 ± 3

Question: And the drug sensitivity score [3]?
Answer: 0

Question: For `CC(C)N(C[C@H]1O[C@@H](n2cnc3c(N)ncnc32)[C@H](O)[C@@H]1O)[C@H]1C[C@@H](CCc2nc3cc(C(C)(C)C)ccc3[nH]2)C1` [Pinometostat], which drug sensitivity score [1] is on record?
Answer: 0

Question: And the drug sensitivity score [2]?
Answer: 0

Question: What about the drug sensitivity score [3] of the same molecule?
Answer: 0

Question: With `O=C1CCc2c(Oc3ccc4c(c3)[C@@H]3[C@H](O4)[C@H]3c3nc4cc(C(F)(F)F)ccc4[nH]3)ccnc2N1` [BGB-283] as the molecule, how does the drug sensitivity score [1] read?
Answer: 21.8 ± 0.64

Question: And the drug sensitivity score [2]?
Answer: 16.9

Question: And the drug sensitivity score [3]?
Answer: 16 ± 0.14

Question: Which results are given for `CC(C)(C)c1cc(NC(=O)Nc2ccc(Oc3ccnc4[nH]c(=O)cnc34)cc2F)n(-c2ccccc2)n1`?
Answer: drug sensitivity score [1]: 25.9 ± 0.78; drug sensitivity score [2]: 20.9 ± 0.49; drug sensitivity score [3]: 17.4 ± 0.21

Question: `C[C@H]1Oc2cc(cnc2N)-c2c(nn(C)c2C#N)CN(C)C(=O)c2ccc(F)cc21` was tested. Which drug sensitivity score [1] did it give?
Answer: 0.5 ± 0.71

Question: What about the drug sensitivity score [2] of the same molecule?
Answer: 2.2 ± 3.1

Question: And the drug sensitivity score [3]?
Answer: 0

Question: How did the drug sensitivity score [1] turn out when `CC[C@]12C=CCN3CC[C@@]4(c5cc([C@@]6(C(=O)OC)C[C@@H]7C[C@@H](C(C)(F)F)CN(Cc8c6[nH]c6ccccc86)C7)c(OC)cc5N(C)[C@H]4[C@@](O)(C(=O)OC)[C@@H]1OC(C)=O)[C@@H]32` [Vinflunine] was run?
Answer: 4.4 ± 0.42

Question: And the drug sensitivity score [2]?
Answer: 3.95 ± 0.49

Question: And the drug sensitivity score [3]?
Answer: 3.55 ± 0.21

Question: How did the drug sensitivity score [1] turn out when `CC(=O)O[C@]1(C(C)=O)CC[C@H]2[C@@H]3C=C(C)C4=CC(=O)CC[C@]4(C)[C@H]3CC[C@@]21C` [Megestrol acetate] was run?
Answer: 0.1 ± 0.14

Question: And the drug sensitivity score [2]?
Answer: 0.15 ± 0.21

Question: And the drug sensitivity score [3]?
Answer: 0

Question: `C=CC(=O)Nc1cc(Nc2nccc(-c3cn(C)c4ccccc34)n2)c(OC)cc1N(C)CCN(C)C` [Osimertinib] was tested. Which drug sensitivity score [1] did it give?
Answer: 5.6 ± 0.28

Question: And the drug sensitivity score [2]?
Answer: 5.6 ± 0.57

Question: What about the drug sensitivity score [3] of the same molecule?
Answer: 1.25 ± 1.2

Question: Which results are given for `C1=N/C2=N/c3ccc(OCCN4CCCC4)c(c3)COC/C=C/COCc3cccc(c3)C(=C1)N2` [Pacritinib]?
Answer: drug sensitivity score [1]: 13.8 ± 1.6; drug sensitivity score [2]: 10.8 ± 2.6; drug sensitivity score [3]: 7 ± 0.14

Question: For `COC(=O)c1ccc2c(c1)[nH]c1ncnc(NCCCN3CCCCC3)c12` [UM729], which drug sensitivity score [1] is on record?
Answer: 4.1 ± 1.1

Question: What about the drug sensitivity score [2] of the same molecule?
Answer: 3.5 ± 4.5

Question: And the drug sensitivity score [3]?
Answer: 0

Question: With `CCOc1ccn(-c2ccc(F)cc2)c(=O)c1C(=O)Nc1ccc(Oc2ccnc(N)c2Cl)c(F)c1` as the molecule, how does the drug sensitivity score [1] read?
Answer: 0.1 ± 0.14

Question: And the drug sensitivity score [2]?
Answer: 0

Question: What about the drug sensitivity score [3] of the same molecule?
Answer: 0

Question: Which drug sensitivity score [1] does the source give for `Cc1cc([C@@H](C)Nc2ccccc2C(=O)O)c2nc(N3CCOCC3)cc(=O)n2c1` [AZD-6482] here?
Answer: 0.1 ± 0.14

Question: And the drug sensitivity score [2]?
Answer: 0.75 ± 1.1

Question: And the drug sensitivity score [3]?
Answer: 0.15 ± 0.21

Question: Which results are given for `CCc1cc2c(cc1N1CCC(N3CCOCC3)CC1)C(C)(C)c1[nH]c3cc(C#N)ccc3c1C2=O` [Alectinib]?
Answer: drug sensitivity score [1]: 1.05 ± 0.35; drug sensitivity score [2]: 0.7 ± 0.99; drug sensitivity score [3]: 0

Question: For `O=S(=O)(c1cccc2c(O)nccc12)N1CCCNCC1` [Hydroxyfasudil], which drug sensitivity score [1] is on record?
Answer: 0.15 ± 0.21

Question: And the drug sensitivity score [2]?
Answer: 0.4 ± 0.57

Question: And the drug sensitivity score [3]?
Answer: 0.2 ± 0.28

Question: Which results are given for `Cn1cnc2c(F)c(Nc3ccc(Br)cc3F)c(C(=O)NOCCO)cc21` [Binimetinib]?
Answer: drug sensitivity score [1]: 3.3 ± 0.42; drug sensitivity score [2]: 0.3 ± 0.42; drug sensitivity score [3]: 0

Question: What does the source list for `C=C1C[C@@H]2CC[C@@]34C[C@H]5O[C@H]6[C@@H](O3)[C@H]3O[C@H](CC[C@@H]3O[C@H]6[C@H]5O4)CC(=O)C[C@@H]3[C@@H](OC)[C@@H](C[C@H](O)CN)O[C@H]3C[C@H]3O[C@@H](CC[C@@H]1O2)C[C@@H](C)C3=C` [Eribulin]?
Answer: drug sensitivity score [1]: 25.9 ± 1.2; drug sensitivity score [2]: 24.6 ± 0.85; drug sensitivity score [3]: 17.4 ± 0.14

Question: For `CN1CCN(c2ccc(C(=O)Nc3n[nH]c4ccc(Cc5cc(F)cc(F)c5)cc34)c(NC3CCOCC3)c2)CC1` [Entrectinib], which drug sensitivity score [1] is on record?
Answer: 0.25 ± 0.35

Question: What about the drug sensitivity score [2] of the same molecule?
Answer: 0.65 ± 0.92

Question: What about the drug sensitivity score [3] of the same molecule?
Answer: 0

Question: `Cc1ccc(=O)n(-c2ccccc2)c1` [Pirfenidone] was tested. Which drug sensitivity score [1] did it give?
Answer: 0

Question: What about the drug sensitivity score [2] of the same molecule?
Answer: 0

Question: And the drug sensitivity score [3]?
Answer: 0

Question: With `CO[C@@H](C)Cn1c(=O)n(C)c2cnc3ccc(-c4cncc(C(C)(C)O)c4)cc3c21` as the molecule, how does the drug sensitivity score [1] read?
Answer: 12.9 ± 0.14

Question: What about the drug sensitivity score [2] of the same molecule?
Answer: 14.3 ± 1.4

Question: What about the drug sensitivity score [3] of the same molecule?
Answer: 10.25 ± 0.071

Question: For `CCS(=O)(=O)N1CC(CC#N)(n2cc(-c3ncnc4[nH]ccc34)cn2)C1` [Baricitinib], which drug sensitivity score [1] is on record?
Answer: 0

Question: And the drug sensitivity score [2]?
Answer: 0

Question: What about the drug sensitivity score [3] of the same molecule?
Answer: 0

Question: How did the drug sensitivity score [1] turn out when `C[C@H]1CN(C2COC2)CCN1c1ccc(Nc2cc(-c3ccnc(N4CCn5c(cc6c5CC(C)(C)C6)C4=O)c3CO)cn(C)c2=O)nc1` [GDC-0853] was run?
Answer: 0

Question: What about the drug sensitivity score [2] of the same molecule?
Answer: 0

Question: And the drug sensitivity score [3]?
Answer: 0

Question: With `COc1cc(CCc2cc(NC(=O)c3ccc(N4CC(C)NC(C)C4)cc3)n[nH]2)cc(OC)c1` (stereo not given) [AZD4547] as the molecule, how does the drug sensitivity score [1] read?
Answer: 0.2 ± 0.28

Question: And the drug sensitivity score [2]?
Answer: 0

Question: What about the drug sensitivity score [3] of the same molecule?
Answer: 0

Question: Which results are given for `Cc1cccc(-c2[nH]c(CNc3ccccc3F)nc2-c2ccc3ncnn3c2)n1` [TEW-7197]?
Answer: drug sensitivity score [1]: 2.35 ± 3.3; drug sensitivity score [2]: 0; drug sensitivity score [3]: 0

Question: Which drug sensitivity score [1] does the source give for `O=C(Nc1ccc(OC(F)(F)Cl)cc1)c1cnc(N2CC[C@@H](O)C2)c(-c2cc[nH]n2)c1` [Asciminib] here?
Answer: 31.85 ± 0.071

Question: And the drug sensitivity score [2]?
Answer: 10.7 ± 4.5

Question: What about the drug sensitivity score [3] of the same molecule?
Answer: 18.8 ± 0.71

Question: For `CCCCNc1ncc(C(=O)NCc2ccc(-n3ccnc3)cc2)c(NC2CCC(O)CC2)n1` (stereo not given) [UNC2881], which drug sensitivity score [1] is on record?
Answer: 0.3 ± 0.42

Question: What about the drug sensitivity score [2] of the same molecule?
Answer: 0

Question: What about the drug sensitivity score [3] of the same molecule?
Answer: 0

Question: With `CCCCCCCCCCCCCCCCOP(=O)([O-])OCC[N+](C)(C)C` [Miltefosine] as the molecule, how does the drug sensitivity score [1] read?
Answer: 7.05 ± 0.21

Question: What about the drug sensitivity score [2] of the same molecule?
Answer: 5.5 ± 1.3

Question: And the drug sensitivity score [3]?
Answer: 2 ± 1.4
